Test results: patent US20170073305A1, “FATTY ACID AMIDES, COMPOSITIONS AND METHODS OF USE” (Catabasis Pharmaceuticals, Inc., priority 2011, published 2017)

Experiments:
[1] = test system: Cystinotic fibroblasts (cell line GM00008, Coriell Cell Repository); experiment: cystinotic fibroblast assay (cystine depletion, LC-MS/MS); format: cell-based; details: 50 μM, cells incubated 24 hours, cystine by LC-MS/MS, percentage of control (POC)
Description: Nephropathic cystinosis is an orphan genetic lysosomal storage disorder characterized by a massive accumulation of crystalline cystine within cells. Affected individuals develop a proximal renal tubulopathy and progress, if untreated, to end-stage renal failure. Omran et al (Bioorg. Med. Chem. 2011, p, 3492) described a convenient in vitro system to quickly evaluate compounds that could deplete levels of cystine in cultured fibroblasts. Cystinotic fibroblasts (cell line GM00008, Coriell Cell Repository) were seeded in a 6-well plate and grown in DMEM/15% FBS until confluent. […] Protein quantification was accomplished by dissolving precipitated protein in 0.25 M NaOH and 1 M Tris (pH 7.5), and spectrophotometric measurement using the Bradford method. Compound I-9 was evaluated in this cystinotic fibroblast assay. The level of cystine in this cystinotic cell line was quantitated by LC-MS/MS. […] The level of cystine was expressed as the percentage of control (POC). […] The cystine level was determined as follows: To the 50 μL of supernatant, acetonitrile (400 μL) containing 200 ng/ml Internal standard (deuterated cystine) was added and mixture was vortexed for 1 min followed by centrifugation for 10 minutes. […] The concentration of Cystine was measured by LC-MS/MS. […]

[2] = test system: mice lacking cystinosin; details: 200 or 400 mg/kg orally for 7, 30 or 60 days, greatest effect in liver and kidney after 60 days; cited from earlier work
[3] = test system: NF-κB; experiment: NF-κB luciferase reporter assay in RAW 264.7 macrophages; format: cell-based; details: Mus musculus, RAW264.7; RAW 264.7 3×NF-κB luciferase reporter cells, 2 hour pretreatment, 200 ng/ml LPS for 3 hours; read-out: NF-kB inhibitory activity IC50
Description: RAW 264.7 cells stably expressing a 3×NF-κB response element-drive luciferase reporter were seeded into 96 well plates in sera-free medium (Optimem) 18 hours prior to compound application. Compounds of the invention were prepared by first making 100 mM stock solutions in EtOH. Stock solutions were then diluted 1:100 in low LPS FBS (Gemini BenchMark 100-106), mixed vigorously and allowed to incubate at room temperature for 30 minutes. 1:2 serial dilutions were then made in FBS supplemented with 1% EtOH, mixed vigorously, and again allowed to incubate at room temperature for 30 minutes before adding to RAW 264.7 reporter cells (final concentrations: 10% FBS, 100 uM highest compound dilution, 0.1% EtOH) for a 2 hour pretreatment prior to stimulation with LPS. Cells were then stimulated with 200 ng/ml LPS or vehicle control for 3 hours in the presence of the compounds of the invention. A set of six vehicles was left unstimulated with LPS in order to measure the assay floor. AlamarBlue viability dye (Invitrogen) was added to cells simultaneously with the delivery of LPS (final AlamarBlue concentration of 10%). After the 3 h incubation period with LPS, cell viability was measured by reading fluorescence (excitation 550 nm, emission 595 nm) with a Perkin Elmer Victor V plate reader. Then cell media was aspirated from each well. Luciferase signal was then developed by addition of the Britelite Plus reagent (Perkin Elmer). Luciferase activity was measured with the Perkin Elmer Victor V plate reader. NF-κB activity was expressed as a percent of the vehicle control wells (stimulated with LPS). Compounds were tested at 6 dose point titrations in triplicate to determine IC50 values. Table 1 summarizes the IC50 values for a number of fatty acid amides in this NF-κB luciferase reporter assay.

[4] = test system: IL-1β; experiment: IL-1β gene expression in LPS-stimulated RAW264.7 macrophages; format: cell-based; details: RAW264.7, 2 hours pre-incubation, 100 ng/ml LPS 3 hours, relative to vehicle only control, FIG. 1
Description: RAW264.7 macrophages were seeded at a density of 100,000 cells/well in a 96-well plate in DMEM supplemented with 10% FBS and Penn/strep. 16 hours later, medium was aspirated and replaced with 90 μL/well of serum-free DMEM. Fatty acid amides were brought up in 100% EtOH to a concentration of 100 mM and then diluted 1:100 in 100% FBS for a stock solution consisting of 1 mM compound and 1% EtOH. These stock solutions were then diluted 1:10 in FBS supplemented with 1% EtOH to generate a 100 μM of the fatty acid amide. 10 μL was then added to the RAW246.7 cells to generate final concentrations 10 μM of the fatty acid amide or 10 μM each DHA and MMF, along with vehicle only control. The compounds were allowed to pre-incubate for 2 hours before stimulation of 100 ng/ml LPS (10 μL of 1 μg/ml LPS was added to each well). Following 3 hours of LPS stimulation, cells were washed once in 1×PBS, aspirated dry, and flash frozen in liquid nitrogen. […] IL-1β transcript levels were then measured using Taqman primer/probe assay sets (Applied Biosystems), normalized to GAPDH using the deltaCt method, and the data expressed relative to vehicle only control. FIG. 1 summarizes the IL-1β gene expression data on compound I-57 (cellular toxicity was assessed using alamar blue as indicator, abbreviated in the figure as AB). […]

[5] = test system: Hmox1; experiment: Hmox1 target gene expression in LPS-stimulated RAW264.7 macrophages; format: cell-based; details: RAW264.7, 1.6-50 μM, 2 hours pre-incubation, 100 ng/ml LPS 3 hours, relative to vehicle only control, FIG. 2
Description: RAW264.7 macrophages were seeded at a density of 100,000 cells/well in a 96-well plate in DMEM supplemented with 10% FBS and Penn/strep. 16 hours later, medium was aspirated and replaced with 90 uL/well of serum-free DMEM. Fatty acid amides were brought up in 100% EtOH to a concentration of 100 mM and then diluted 1:100 in 100% FBS for a 20× stock solution consisting of 1 mM compound and 1% EtOH. The fatty acid amide 20× stock solutions were diluted 1:2 in FBS supplemented with 1% EtOH for a 500 uM 10× stock solution. The 10× stock solutions were then serially diluted 1:2 in FBS supplemented with 1% EtOH and 10 μL of each dilution was added to the RAW246.7 cells to generate final concentrations of 50, 25, 12.5, 6.25, 3.12 and 1.6 μM. The compounds were allowed to pre-incubate for 2 hours before stimulation of 100 ng/ml LPS (10 μL of 1 μg/ml LPS is added to each well). Following 3 hours of LPS stimulation, cells were washed once in 1×PBS, aspirated dry, and flash frozen in liquid nitrogen. […] Transcript levels were then measured using ABI Taqman primer/probe assay kits, normalized to GAPDH using the deltaCt method, and the data expressed relative to vehicle only control. FIG. 2 summarizes the Hmox data on compound I-57 (cellular toxicity was assessed using alamar blue as indicator, abbreviated in the figure as AB). […]

Compound | IC50 [3] | also measured
NCCS [cysteamine, reference compound] | – | reduction in the cystine level [1]: 45%; cystine levels of tissues [2]: reduce cystine levels of all tissues tested
CC/C=C\C/C=C\C/C=C\C/C=C\C/C=C\CCCC(=O)NCCOCCOCCOC [I-57, (5Z,8Z,11Z,14Z,17Z)-N-(2-(2-(2-methoxyethoxy)ethoxy)ethyl)icosa-5,8,11,14,17-pentaenamide] | < 50 µM | IL-1β gene expression [4]: decrease; Hmox gene expression [5]: upregulation
CC/C=C\C/C=C\C/C=C\C/C=C\C/C=C\CCCC(=O)NCCSSCCNC(C)=O [I-9, (5Z,8Z,11Z,14Z,17Z)-N-(2-((2-acetamidoethyl)disulfanyl)ethyl)icosa-5,8,11,14,17-pentaenamide] | – | reduction in the cystine level [1]: 68%
CC/C=C\C/C=C\C/C=C\C/C=C\C/C=C\C/C=C\CCC(=O)N[C@@H](C)C(=O)N[C@@H]1[C@@H](O)[C@H](O)[C@@H](CO)O[C@H]1O [I-47, (4Z,7Z,10Z,13Z,16Z,19Z)-N-((S)-1-oxo-1-(((2R,3R,4R,5S,6R)-2,4,5-trihydroxy-6-(hydroxymethyl)tetrahydro-2H-pyran-3-yl)amino)propan-2-yl)docosa-4,7,10,13,16,19-hexaenamide] | > 200 µM | –
CC/C=C\C/C=C\C/C=C\C/C=C\C/C=C\C/C=C\CCC(=O)O [DHA, all-cis-4,7,10,13,16,19-docosahexaenoic acid, reference compound] | > 200 µM | –
CC/C=C\C/C=C\C/C=C\C/C=C\C/C=C\CCCC(=O)O [EPA, all-cis-5,8,11,14,17-eicosapentaenoic acid, reference compound] | > 200 µM | –

The next lines start with results.

IC50 [3] | Compound | also measured
< 50 µM | CC/C=C\C/C=C\C/C=C\C/C=C\C/C=C\C/C=C\CCC(=O)N[C@H](C(=O)N[C@@H]1[C@@H](O)[C@H](O)[C@@H](CO)O[C@H]1O)C(C)C [I-48, (4Z,7Z,10Z,13Z,16Z,19Z)-N-((S)-3-methyl-1-oxo-1-(((2R,3R,4R,5S,6R)-2,4,5-trihydroxy-6-(hydroxymethyl)tetrahydro-2H-pyran-3-yl)amino)butan-2-yl)docosa-4,7,10,13,16,19-hexaenamide] | –
< 50 µM | CC/C=C\C/C=C\C/C=C\C/C=C\C/C=C\C/C=C\CCC(=O)N[C@@H](CC(C)C)C(=O)N[C@@H]1[C@@H](O)[C@H](O)[C@@H](CO)O[C@H]1O [I-49, (4Z,7Z,10Z,13Z,16Z,19Z)-N-((S)-4-methyl-1-oxo-1-(((2R,3R,4R,5S,6R)-2,4,5-trihydroxy-6-(hydroxymethyl)tetrahydro-2H-pyran-3-yl)amino)pentan-2-yl)docosa-4,7,10,13,16,19-hexaenamide] | –
< 200 µM | CC/C=C\C/C=C\C/C=C\C/C=C\C/C=C\C/C=C\CCC(=O)Nc1nc2c(s1)C[C@H](NCCC)CC2 [I-21, (4Z,7Z,10Z,13Z,16Z,19Z)-N-((R)-6-(propylamino)-4,5,6,7-tetrahydrobenzo[d]thiazol-2-yl)docosa-4,7,10,13,16,19-hexaenamide] | –
< 50 µM | CC/C=C\C/C=C\C/C=C\C/C=C\C/C=C\C/C=C\CCC(=O)NCCOCCOCCOC [I-52, (4Z,7Z,10Z,13Z,16Z,19Z)-N-(2-(2-(2-methoxyethoxy)ethoxy)ethyl)docosa-4,7,10,13,16,19-hexaenamide] | –
